Test results as given in US20170305943A1, “COMPOUNDS FOR THE TREATMENT OF BACTERIAL INFECTIONS” (priority 2014, published 2017).
In brackets after ≈: the same amount, converted by molar mass.

How the values were obtained:
Assay in all cases: Bacterial Assay: Determination of Antibacterial Activity (MIC, broth microdilution or agar dilution)
Type in all cases: cell-based
[1] = tested on: Clostridium difficile (Isolate ID 027-01); conditions: Clostridioides difficile, 48 h, read-out: MIC (μg/mL) C. difficile (027-01)
Outline: (§1)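 MICs were set by CLSI broth microdilution or agar dilution for anaerobes, read visually after 48 hours at 37° C. under anaerobic gas packs. Medium was reinforced clostridial medium with 0.1% defibrinated horse blood; values are binned as A ≦1.01, B >1.0-4.0, C >4.0-16 μg/mL.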

[2] = tested on: Clostridium difficile (Isolate ID BI-9); conditions: Clostridioides difficile, 48 h, read-out: MIC (μg/mL) C. difficile (B-I9)
Outline: as §1

[3] = tested on: Clostridium difficile (Isolate ID ATCC 9689); conditions: Clostridioides difficile, ATCC9689, 48 h, read-out: C. difficile MIC Activity Range
Outline: as §1

Structure (SMILES)	MIC [1]	MIC [2]	MIC [3]
NC(=O)c1c(F)ccc(OCCCCOc2ccc(C(F)(F)F)cc2)c1F [Compound 129, 2,6-difluoro-3-{4-[4 (trifluoromethyl)phenoxy]butoxy}benzamide]	0.06 µg/mL (≈ 0.154 µM)	0.06 µg/mL (≈ 0.154 µM)	< 1.01 µg/mL
NC(=O)c1c(F)ccc(OCCCCCOc2ccc(Cl)cc2)c1F [Compound 130, 3-{[5-(4-chlorophenoxy)pentyl]oxy}-2,6-difluorobenzamide]	0.5 µg/mL (≈ 1.35 µM)	0.5 µg/mL (≈ 1.35 µM)	< 1.01 µg/mL
NC(=O)c1c(F)ccc(OCCCCCOc2ccc(OC(F)(F)F)cc2)c1F [Compound 131, 2,6-difluoro-3-({5-[4-(trifluoromethoxy)phenoxy]pentyl}oxy) benzamide]	0.25 µg/mL (≈ 0.596 µM)	0.25 µg/mL (≈ 0.596 µM)	< 1.01 µg/mL
NC(=O)c1c(F)ccc(OCCCCCOc2ccc(C(F)(F)F)cc2)c1F [Compound 132, 2,6-difluoro-3-({5-[4 (trifluoromethyl)phenoxy]pentyl}oxy) benzamide]	0.25 µg/mL (≈ 0.62 µM)	0.5 µg/mL (≈ 1.24 µM)	< 1.01 µg/mL
NC(=O)c1c(F)ccc(OCCCCCCOc2ccc(Cl)cc2)c1F [Compound 133, 3-{[6-(4-chlorophenoxy)hexyl]oxy}-2,6-difluorobenzamide]	0.5 µg/mL (≈ 1.3 µM)	0.5 µg/mL (≈ 1.3 µM)	< 1.01 µg/mL
NC(=O)c1c(F)ccc(OCCCCCCOc2ccc(OC(F)(F)F)cc2)c1F [Compound 134, 2,6-difluoro-3-({6-[4 (trifluoromethoxy)phenoxy]hexyl}oxy) benzamide]	0.25 µg/mL (≈ 0.577 µM)	0.25 µg/mL (≈ 0.577 µM)	< 1.01 µg/mL
NC(=O)c1c(F)ccc(OCCCCCCOc2ccc(C(F)(F)F)cc2)c1F [Compound 135, 2,6-difluoro-3-({6-[4-(trifluoromethyl)phenoxy]hexyl}oxy)benzamide]	0.5 µg/mL (≈ 1.2 µM)	0.5 µg/mL (≈ 1.2 µM)	< 1.01 µg/mL
NC(=O)c1c(F)ccc(OCCOCCOc2ccc(Cl)cc2)c1F [Compound 136, 3-{2-[2-(4-chlorophenoxy)ethoxy]ethoxy}-2,6-difluorobenzamide]	4 µg/mL (≈ 10.8 µM)	4 µg/mL (≈ 10.8 µM)	1 to 4 µg/mL (≈ 2.69 to 10.8 µM)
CN(CCCCOc1ccc(OC(F)(F)F)cc1)c1ccc(F)c(C(N)=O)c1F [Compound 152, 2,6-difluoro-3-(methyl{4-[4-(trifluoromethoxy)phenoxy]butyl}amino) benzamide]	0.5 µg/mL (≈ 1.2 µM)	0.5 µg/mL (≈ 1.2 µM)	< 1.01 µg/mL
NC(=O)c1c(F)ccc(OCCCCCc2ccc(C(F)(F)F)cc2)c1F [Compound 155, 2,6-difluoro-3-({5-[4-(trifluoromethyl)phenyl]pentyl}oxy)benzamide]	0.12 µg/mL (≈ 0.31 µM)	0.12 µg/mL (≈ 0.31 µM)	< 1.01 µg/mL
NC(=O)c1c(F)ccc(OCCCCOc2ccc(S(F)(F)(F)(F)F)cc2)c1F [Compound 159]	0.12 µg/mL (≈ 0.268 µM)	0.12 µg/mL (≈ 0.268 µM)	< 1.01 µg/mL
NC(=O)c1c(F)ccc(OCC#CCOc2ccc(OC(F)(F)F)cc2)c1F [Compound 160, 2,6-difluoro-3-({4-[4-(trifluoromethoxy)phenoxy]but-2-yn-1-yl}oxy)benzamide]	0.25 µg/mL (≈ 0.623 µM)	0.25 µg/mL (≈ 0.623 µM)	< 1.01 µg/mL
NC(=O)c1c(F)ccc(OCCOCCOc2ccc(S(F)(F)(F)(F)F)cc2)c1F [Compound 161, 2,6-difluoro-3-(2-{2-[4-(pentafluoro-lambda~6~-sulfanyl)phenoxy]ethoxy}ethoxy)benzamide]	2 µg/mL (≈ 4.32 µM)	1 µg/mL (≈ 2.16 µM)	< 1.01 µg/mL
Cc1sc(COc2ccc(F)c(C(N)=O)c2F)nc1-c1ccc(Cl)cc1 [Compound 189, 3-{[4-(4-chlorophenyl)-5-methyl-1,3-thiazol-2-yl]methoxy}-2,6-difluorobenzamide]	1 µg/mL (≈ 2.53 µM)	1 µg/mL (≈ 2.53 µM)	< 1.01 µg/mL
NC(=O)c1c(F)ccc(OCc2ccnc(-c3ccc(Cl)cc3)n2)c1F [Compound 192, 3-{[2-(4-chlorophenyl)pyrimidin-4-yl]methoxy}-2,6-difluorobenzamide]	1 µg/mL (≈ 2.66 µM)	1 µg/mL (≈ 2.66 µM)	< 1.01 µg/mL
NC(=O)c1c(F)ccc(OCc2cccc(-c3ccc(Cl)cc3)n2)c1F [Compound 194, 3-{[6-(4-chlorophenyl)pyridin-2-yl]methoxy}-2,6-difluorobenzamide]	0.5 µg/mL (≈ 1.33 µM)	0.5 µg/mL (≈ 1.33 µM)	< 1.01 µg/mL
NC(=O)c1c(F)ccc(OCc2nc(C#Cc3cccc(Cl)c3)cs2)c1F [Compound 198, 3-({4-[(3-chlorophenyl)ethynyl]-1,3-thiazol-2-yl}methoxy)-2,6-difluorobenzamide]	0.12 µg/mL (≈ 0.296 µM)	0.25 µg/mL (≈ 0.618 µM)	< 1.01 µg/mL
NC(=O)c1c(F)ccc(OCc2nc(-c3ccc(Cl)s3)cs2)c1F [Compound 203, 3-{[4-(5-chlorothiophen-2-yl)-1,3-thiazol-2-yl]methoxy}-2,6-difluorobenzamide]	0.5 µg/mL (≈ 1.29 µM)	1 µg/mL (≈ 2.59 µM)	< 1.01 µg/mL
CNC(=N)c1cccc(OCc2nc(-c3ccc(Cl)cc3)ns2)c1F [Compound 205, 3-{[3-(4-chlorophenyl)-1,2,4-thiadiazol-5-yl]methoxy}-2-fluoro-N-methylbenzenecarboximidamide]	16 µg/mL (≈ 42.5 µM)	16 µg/mL (≈ 42.5 µM)	4 to 16 µg/mL (≈ 10.6 to 42.5 µM)
COc1ncc(-c2csc(COc3ccc(F)c(C(N)=O)c3F)n2)s1 [Compound 207, 2,6-difluoro-3-[(2′-methoxy-4,5′-bi-1,3-thiazol-2-yl)methoxy]benzamide]	4 µg/mL (≈ 10.4 µM)	4 µg/mL (≈ 10.4 µM)	1 to 4 µg/mL (≈ 2.61 to 10.4 µM)
NC(=O)c1c(F)ccc(OCc2nc(-c3ccc(C(F)(F)F)cc3)c(Br)o2)c1F [Compound 208, 3-({5-bromo-4-[4-(trifluoromethyl)phenyl]-1,3-oxazol-2-yl}methoxy)-2,6-difluorobenzamide]	0.06 µg/mL (≈ 0.126 µM)	0.06 µg/mL (≈ 0.126 µM)	< 1.01 µg/mL
NC(=O)c1c(F)ccc(OCc2nc(-c3ccc(OC(F)(F)F)cc3)c(Br)o2)c1F [Compound 209, 3-({5-bromo-4-[4-(trifluoromethoxy)phenyl]-1,3-oxazol-2-yl}methoxy)-2,6-difluorobenzamide]	0.12 µg/mL (≈ 0.243 µM)	0.25 µg/mL (≈ 0.507 µM)	< 1.01 µg/mL
NC(=O)c1c(F)ccc(OCc2nc(-c3ccc(OC(F)(F)F)cc3)c(C(F)(F)F)o2)c1F [Compound 213, 2,6-difluoro-3-({4-[4-(trifluoromethoxy)phenyl]-5-(trifluoromethyl)-1,3-oxazol-2-yl}methoxy)benzamide]	0.12 µg/mL (≈ 0.249 µM)	0.25 µg/mL (≈ 0.518 µM)	< 1.01 µg/mL
